Columns and labels:
Assay type in all cases: cell-based, human
SW480 = test: Cell growth / proliferation (cell number); settings: for Number of cells / % inhibition: counted seven days after seeding; for Number of cells: control 1,500,000; for % Growth inhibition After 3 days: SW480, N6 or N7 20 μM, viable cell number vs untreated control, mean of at least 2 independent experiments
Description: (§1) Human breast (MDA-MB-231, MDA-MB-435 [37]), prostate (LNCaP, from American Type Culture Collection, ATCC, Rockville, MD), and cervical (HeLa) epithelial cancer cells were grown in DMEM-glutamax medium (Gibco Invitrogen, Cergy-Pontoise, France) containing GlutaMAX™, 4.5 g/l glucose and supplemented with 10% heat-inactivated (56°C for 30 min) fetal bovine serum (FBS; Hyclone, Thermo Fisher Scientific, Inc). Human SW480 cells are derived from a grade 3-4 colon carcinoma, while the highly metastatic counterpart SW620 is established from the lymph node of a person. Both SW480 and SW620 cells (obtained from Francis Raul, IRCAD) are highly tumorigenic in nude mice. They were cultured in D-MEM, 10% FCS. The murine melanoma TIII cell line was obtained from Armelle Prévost-Blondel. Murine T29 lymphoma cells, obtained from Philippe Kastner (CNRS, Strasbourg), have been established from Ik^L/L tumors from mice carrying a hypomorphic mutation (Ik^L/L) in the Ikaros gene encoding a transcription factor that regulates lymphocyte differentiation, and acts also as a tumor suppressor in T lymphocytes. The T29 cells were cultured in RPMI medium containing 25 mM Hepes pH 7.6, 1 mM sodium pyruvate, and 10% FCS. Human leukemia cell lines, Jurkat (acute T cell leukemia), HuT 78 (cutaneous T lymphocyte), RAJI (Burkitt lymphoma), and HL60 (promyelocytic leukemia) were cultured in RPMI-1640 medium (Gibco) containing GlutaMAX™, and supplemented with 10% heat-inactivated FBS as described before. The wild-type Chinese hamster ovary cell line (CHO K1) was purchased from American Type Culture Collection (ATCC; Rockville, MD). The CHO LRP1-null cell line (CHO-13-5-1) was kindly provided by D. Strickland [47]. They were cultured in Ham's F12K medium. All cells were cultured with 10% (v/v) heat inactivated (56°C, 30 min) fetal bovine serum (FBS) (Roche Molecular Biochemicals, Indianapolis, IN) and 50 international units/mL penicillin-streptomycin (Invitrogen). Cell death was monitored conveniently by uptake of the trypan blue dye due to plasma membrane permeability of dying and/or dead cells.

SW620 [1] = test: Cell growth / proliferation (cell number); settings: for Number of cells / % inhibition: counted seven days after seeding; for Number of cells: control 1,800,000; for % Growth inhibition After 3 days: SW620, N6 or N7 20 μM, viable cell number vs untreated control, mean of at least 2 independent experiments
Description: as §1

HL60 = test: Cell death (trypan blue uptake); settings: HL60, freshly passaged, N6 or N7 20 μM, mean of at least 2 independent experiments
Description: as §1

Jurkat = test: Cell death (trypan blue uptake); settings: freshly passaged, N6 or N7 20 μM, mean of at least 2 independent experiments
Description: as §1

LNCaP = test: Cell death (trypan blue uptake); settings: subconfluent, N6 or N7 20 μM, mean of at least 2 independent experiments
Description: as §1

MDA-MB 231 = test: Cell death (trypan blue uptake); settings: MDA-MB 231, subconfluent, N6 or N7 20 μM, mean of at least 2 independent experiments
Description: as §1

MDA-MB 435 = test: Cell death (trypan blue uptake); settings: MDA-MB 435, subconfluent, N6 or N7 20 μM, mean of at least 2 independent experiments
Description: as §1

SW620 [2] = test: Cell death (trypan blue uptake); settings: SW620, subconfluent, N6 or N7 20 μM, mean of at least 2 independent experiments
Description: as §1

For “Ac-KAKPGKAKPGKAKPG-NH2 [Nucant N7, Presents hexavalently the pseudo-tripeptide Lysψ(CH2N)-Pro-Arg coupled to a similar template as in HB-19]”, the Number of cells (SW480; SW480, 10 μM added once 5 hours after seeding (20,000 cells/ml, 2 ml)) was 1,200,000, the “% inhibition” value (SW480; SW480, 10 μM added once 5 hours after seeding) was 20% and the Number of cells (SW480; SW480, 20 μM added once 5 hours after seeding (20,000 cells/ml, 2 ml)) was 900,000. For the same substance, the “% inhibition” value (SW480; SW480, 20 μM added once 5 hours after seeding) was 40%, the “% Growth inhibition After 3 days” value (SW480) was 25% and the Number of cells (SW620 [1]; SW620, 10 μM added once 5 hours after seeding (20,000 cells/ml, 2 ml)) was 1,000,000. For the same substance, the “% inhibition” value (SW620 [1]; SW620, 10 μM added once 5 hours after seeding) was 44%, the Number of cells (SW620 [1]; SW620, 20 μM added once 5 hours after seeding (20,000 cells/ml, 2 ml)) was 700,000 and the “% inhibition” value (SW620 [1]; SW620, 20 μM added once 5 hours after seeding) was 61%. For the same substance, the “% Growth inhibition After 3 days” value (SW620 [1]) was 45%, the “% Cell death After 24 hours” value (HL60) was 35% and the “% Cell death After 24 hours” value (Jurkat) was 45%. For the same substance, the “% Cell death After 24 hours” value (LNCaP) was < 5%, the “% Cell death After 24 hours” value (MDA-MB 231) was < 5% and the “% Cell death After 24 hours” value (MDA-MB 435) was < 5%. The “% Cell death After 24 hours” value (SW620 [2]) was < 5%.

“Ac-Lys-Aib-Gly-Lys-Aib-Gly-Lys-Aib-Gly-Lys-Aib-Gly-Lys-Aib-Gly-Lys-Aib-Gly-CONH2 [Nucant N6, Presents hexavalently the pseudo-tripeptide Lysψ(CH2N)-Pro-Arg coupled to the polypeptide template containing Aib]” was tested, and the “% Growth inhibition After 3 days” value (SW480) was 25%, the “% Growth inhibition After 3 days” value (SW620 [1]) was 45% and the “% Cell death After 24 hours” value (HL60) was 35%. For the same substance, the “% Cell death After 24 hours” value (Jurkat) was 45%, the “% Cell death After 24 hours” value (LNCaP) was < 5% and the “% Cell death After 24 hours” value (MDA-MB 231) was < 5%. The “% Cell death After 24 hours” value (MDA-MB 435) was < 5% and the “% Cell death After 24 hours” value (SW620 [2]) was < 5%.
